The results in this text go back to US20260022142A1, “MACROCYCLIC IMMUNOMODULATORS” (Bristol-Myers Squibb Company, priority 2022, published 2026).

Numbered stars: 1 amine (or outer) side, 2 acyl side, 3 side chain; on linkers, the order of the positions; unused ones are H or OH. Bridge positions count the residues as written; N and C are the ends. Square brackets hold non-standard residues; d marks the D form. Peptide text beside a SMILES is read from it. * marks the point of attachment. ξ: configuration not given here. Bip = N[C@@H](Cc1ccc(-c2ccccc2)cc1)C(=O)O; X10 = O=C([C@H](Cc1cc[nH]c1)N[*:1])[*:2]; Phe(3-Me) = Cc1cccc(C[C@H](N)C(=O)O)c1; His(τ-Me) = Cn1cnc(C[C@H](N)C(=O)O)c1; Val(3-OH) = CC(C)(O)[C@H](N)C(=O)O; mTyr = N[C@@H](Cc1cccc(O)c1)C(=O)O; hArg = N=C(N)NCCCC[C@H](N)C(=O)O; 4Pal = N[C@@H](Cc1ccncc1)C(=O)O; Cha = N[C@@H](CC1CCCCC1)C(=O)O; Cit = NC(=O)NCCC[C@H](N)C(=O)O; Thr(3ξ) = CC(O)[C@H](N)C(=O)O; dNle = CCCC[C@@H](N)C(=O)O; dDab = NCC[C@@H](N)C(=O)O; Carboxymethyl = O=C(O)C*; Orn = NCCC[C@H](N)C(=O)O; Aun = NCCCCCCCCCCC(=O)O; Dab = NCC[C@H](N)C(=O)O; Nva = CCC[C@H](N)C(=O)O; Dap = NC[C@H](N)C(=O)O; AEEA = NCCOCCOCC(=O)O

What is called IC50 is the concentration that inhibits the measured activity by half.

For this assay, the target named is T1, PD-1/PD-L1 interaction (PE-labeled human PD-L1-Ig binding to Jurkat cell line over-expressing human PD-1) (Homo sapiens, UniProt Q15116).
T1 construct: expressed in transfected cells; host or cells: Jurkat
T1 sequence (Q15116 25-288): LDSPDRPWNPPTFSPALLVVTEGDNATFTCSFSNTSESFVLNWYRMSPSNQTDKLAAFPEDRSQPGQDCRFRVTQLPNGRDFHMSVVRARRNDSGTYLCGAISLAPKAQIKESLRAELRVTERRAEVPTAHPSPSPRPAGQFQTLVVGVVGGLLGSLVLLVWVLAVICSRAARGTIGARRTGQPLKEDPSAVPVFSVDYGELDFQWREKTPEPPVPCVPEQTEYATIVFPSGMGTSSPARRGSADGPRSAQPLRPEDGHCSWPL
Kind of assay: Jurkat-PD-1 Cell Binding High-Content Screening Assay (CBA). Particulars: Jurkat cell line over-expressing human PD-1; PE-labeled PD-L1-Ig 20 nM final; read-out: Jurkat hPD1-PDL1 IC50. The format is cell-based. In a few lines: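 Jurkat-hPD-1 cells, DMEM/10% FCS; cpd 2 h 37° C; PE-PD-L1-Ig 20 nM final, 1 h; 4% PFA fix + Hoechst 33342, 3× dPBS wash; high-content imaging read-out.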
In the case of `Cc1cccc(C[C@@H]2NC(=O)[C@H](CC(=O)O)NC(=O)[C@H](Cc3ccc(OCC(=O)O)cc3)NC(=O)[C@H](CCN)NC(=O)CSC[C@@H](C(=O)N[C@@H](CC(N)=O)C(=O)NCCCCCCCCCCC(=O)O)NC(=O)[C@H](Cc3cnc[nH]3)NC(=O)[C@H](C(C)O)NC(=O)[C@H](CC3CCCCC3)NC(=O)[C@H](CCN)NC(=O)[C@@H](CC(C)C)NC(=O)[C@H](CCCN)NC(=O)[C@H](Cc3ccc(OCC(=O)O)cc3)NC(=O)[C@H](Cc3ccc(-c4ccccc4)cc3)NC(=O)[C@H](Cc3ccc(OCC(=O)O)cc3)NC2=O)c1` (stereo partly drawn) [Compound 3642] ({CH2CO}-[Dab]Y(Carboxymethyl)D[Phe(3-Me)]Y(Carboxymethyl)[Bip]Y(Carboxymethyl)[Orn][dL][Dab][Cha][Thr(3ξ)]HCN[Aun]-OH; thioether N-14), the IC50 is 6.8 nM.

With `CC(C)C[C@H]1NC(=O)[C@H](CCCN)NC(=O)[C@H](Cc2ccc(O)cc2)NC(=O)[C@H](Cc2ccc(-c3ccccc3)cc2)NC(=O)[C@H](Cc2ccc(O)cc2)NC(=O)[C@H](Cc2cccc(O)c2)NC(=O)[C@H](CC(=O)O)NC(=O)[C@H](Cc2ccc(OCC(=O)O)cc2)NC(=O)[C@H](CN)NC(=O)CSC[C@@H](C(=O)N[C@@H](CCN)C(=O)NCCCCCCCCCCC(=O)O)NC(=O)[C@@H](CCN)NC(=O)[C@H](C(C)C)NC(=O)[C@H](CC2CCCCC2)NC(=O)[C@H](CCN)NC1=O` [Compound 2079] ({CH2CO}-[Dap]Y(Carboxymethyl)D[mTyr]Y[Bip]Y[Orn][dL][Dab][Cha]V[dDab]C[Dab][Aun]-OH; thioether N-14), the IC50 was 245 nM.

With `Cc1cccc(C[C@@H]2NC(=O)[C@H](CC(=O)O)NC(=O)[C@H](Cc3ccncc3)NC(=O)[C@H](Cc3ccc(OCC(=O)O)cc3)NC(=O)CSC[C@@H](C(=O)NCCOCCOCC(=O)NCCCCCCCCCCC(=O)O)NC(=O)[C@H]([C@@H](C)O)NC(=O)[C@H](C(C)C)NC(=O)[C@H](CC3CCCCC3)NC(=O)[C@H](CCN)NC(=O)[C@@H](CC(C)C)NC(=O)[C@H](CCCN)NC(=O)[C@H](C(C)C)NC(=O)[C@H](Cc3ccc(-c4ccccc4)cc3)NC(=O)[C@H](C(C)C)NC2=O)c1` [Compound 1162] ({CH2CO}-Y(Carboxymethyl)[4Pal]D[Phe(3-Me)]V[Bip]V[Orn][dL][Dab][Cha]VTC[AEEA][Aun]-OH; thioether N-14), the IC50 was 20.8 nM.

Consider `CCCC[C@H]1NC(=O)[C@H](CCCN)NC(=O)[C@H](C(C)C)NC(=O)[C@H](Cc2ccc(-c3ccccc3)cc2)NC(=O)[C@H](C(C)C)NC(=O)[C@H](Cc2cccc(C)c2)NC(=O)[C@H](CC(=O)O)NC(=O)[C@H](Cc2ccc(OCC(=O)O)cc2)NC(=O)[C@H](CN)NC(=O)CSC[C@@H](C(=O)N[C@@H](CCN)C(=O)NCCOCCOCC(=O)NCCCCCCCCCCC(=O)O)NC(=O)[C@H](CCCNC(=N)N)NC(=O)[C@H](C(C)C)NC(=O)[C@H](CC2CCCCC2)NC(=O)[C@H](CCN)NC1=O` [Compound 2682] ({CH2CO}-[Dap]Y(Carboxymethyl)D[Phe(3-Me)]V[Bip]V[Orn][dNle][Dab][Cha]VRC[Dab][AEEA][Aun]-OH; thioether N-14), for which the IC50 turned out to be 17.4 nM.

Take `Cc1cccc(C[C@@H]2NC(=O)[C@H](CC(=O)O)NC(=O)[C@H](Cc3ccc(OCC(=O)O)cc3)NC(=O)[C@H](C(C)O)NC(=O)CSC[C@@H](C(=O)N[C@H](CC(N)=O)C(=O)NCCCCCCCCCCC(=O)O)NC(=O)[C@H](CCC(N)=O)NC(=O)[C@H](C(C)C)NC(=O)[C@H](CC3CCCCC3)NC(=O)[C@H](CCN)NC(=O)[C@@H](CC(C)C)NC(=O)[C@H](CCCN)NC(=O)[C@H](Cc3ccc(O)cc3)NC(=O)[C@H](Cc3ccc(-c4ccccc4)cc3)NC(=O)[C@H](C(C)C)NC2=O)c1` (stereo partly drawn) [Compound 3428] ({CH2CO}-[Thr(3ξ)]Y(Carboxymethyl)D[Phe(3-Me)]V[Bip]Y[Orn][dL][Dab][Cha]VQC[dN][Aun]-OH; thioether N-14): the IC50 was found to be 9.8 nM.

Take `Cc1cccc(C[C@@H]2NC(=O)[C@H](CC(=O)O)NC(=O)[C@H](Cc3ccc(OCC(=O)O)cc3)NC(=O)[C@H](C(C)O)NC(=O)CSC[C@@H](C(=O)NCCOCCOCC(=O)NCCCCCCCCCCC(=O)O)NC(=O)[C@H](C(C)O)NC(=O)[C@H](C(C)C)NC(=O)[C@H](CC3CCCCC3)NC(=O)[C@H](CCN)NC(=O)[C@@H](CC(C)C)NC(=O)[C@H](CCN)NC(=O)[C@H](C(C)C)NC(=O)[C@H](Cc3ccc(-c4ccccc4)cc3)NC(=O)[C@H](C(C)C)NC2=O)c1` (stereo partly drawn) [Compound 3442] ({CH2CO}-[Thr(3ξ)]Y(Carboxymethyl)D[Phe(3-Me)]V[Bip]V[Dab][dL][Dab][Cha]V[Thr(3ξ)]C[AEEA][Aun]-OH; thioether N-14): the IC50 came out at 16.4 nM.

Regarding `Cc1cccc(C[C@@H]2NC(=O)[C@H](CC(=O)O)NC(=O)[C@H](Cc3ccc(OCC(=O)O)cc3)NC(=O)[C@H](Cc3cn(C)cn3)NC(=O)CSC[C@@H](C(=O)N[C@@H](CCN)C(=O)NCCCCCCCCCCC(=O)O)NC(=O)[C@H](CO)NC(=O)[C@H](C(C)C)NC(=O)[C@H](CC3CCCCC3)NC(=O)[C@H](CCN)NC(=O)[C@@H](CC(C)C)NC(=O)[C@H](CCCN)NC(=O)[C@H](Cc3ccc(OCC(=O)O)cc3)NC(=O)[C@H](Cc3ccc(-c4ccccc4)cc3)NC(=O)[C@H](C(C)(C)O)NC2=O)c1` [Compound 2150] ({CH2CO}-[His(τ-Me)]Y(Carboxymethyl)D[Phe(3-Me)][Val(3-OH)][Bip]Y(Carboxymethyl)[Orn][dL][Dab][Cha]VSC[Dab][Aun]-OH; thioether N-14), the IC50 was determined as 565 nM.

For the compound `CCC[C@@H]1NC(=O)CSC[C@@H](C(=O)N[C@@H](CCN)C(=O)NCCCCCCCCCCC(=O)O)NC(=O)[C@H](CO)NC(=O)[C@H](C(C)(C)O)NC(=O)[C@H](CC2CCCCC2)NC(=O)[C@H](CCN)NC(=O)[C@@H](CC(C)C)NC(=O)[C@H](CCCN)NC(=O)[C@H](Cc2ccc(OCC(=O)O)cc2)NC(=O)[C@H](Cc2ccc(-c3ccccc3)cc2)NC(=O)[C@H](Cc2ccc(OCC(=O)O)cc2)NC(=O)[C@H](Cc2cccc(C)c2)NC(=O)[C@H](CC(=O)O)NC(=O)[C@H](Cc2ccc(OCC(=O)O)cc2)NC1=O` [Compound 2204] ({CH2CO}-[Nva]Y(Carboxymethyl)D[Phe(3-Me)]Y(Carboxymethyl)[Bip]Y(Carboxymethyl)[Orn][dL][Dab][Cha][Val(3-OH)]SC[Dab][Aun]-OH; thioether N-14), the IC50 was found to be 10.6 nM.

As to `Cc1cccc(C[C@@H]2NC(=O)[C@H](CC(=O)O)NC(=O)[C@H](Cc3ccc(OCC(=O)O)cc3)NC(=O)[C@H](CCCCNC(=N)N)NC(=O)CSC[C@@H](C(=O)N[C@@H](CCCCN)C(=O)N[C@@H](CO)C(=O)NCCCCCCCCCCC(=O)O)NC(=O)[C@H](C(C)O)NC(=O)[C@H](C(C)O)NC(=O)[C@H](CC3CCCCC3)NC(=O)[C@H](CCN)NC(=O)[C@@H](CC(C)C)NC(=O)[C@H](CCCN)NC(=O)[C@H](CCCNC(=N)N)NC(=O)[C@H](Cc3ccc(-c4ccccc4)cc3)NC(=O)[C@H](C(C)C)NC2=O)c1` (stereo partly drawn) [Compound 3547] ({CH2CO}-[hArg]Y(Carboxymethyl)D[Phe(3-Me)]V[Bip]R[Orn][dL][Dab][Cha][Thr(3ξ)][Thr(3ξ)]CKS[Aun]-OH; thioether N-14), the concentration for half-maximal inhibition (IC50) came out at 74 nM.

As to `CC(C)C[C@H]1NC(=O)[C@H](CCCN)NC(=O)[C@H](C(C)C)NC(=O)[C@H](Cc2ccc(-c3ccccc3)cc2)NC(=O)[C@H](C(C)C)NC(=O)[C@H](Cc2cccc(O)c2)NC(=O)[C@H](CC(=O)O)NC(=O)[C@H](Cc2ccc(OCC(=O)O)cc2)NC(=O)[C@H](CN)NC(=O)CSC[C@@H](C(=O)N[C@@H](CCN)C(=O)NCCCCCCCCCCC(=O)O)NC(=O)[C@H](CCCCN)NC(=O)[C@H](C(C)C)NC(=O)[C@H](CC2CCCCC2)NC(=O)[C@H](CCN)NC1=O` [Compound 2029] ({CH2CO}-[Dap]Y(Carboxymethyl)D[mTyr]V[Bip]V[Orn][dL][Dab][Cha]VKC[Dab][Aun]-OH; thioether N-14), the IC50 was found to be 8 nM.

On to `Cc1cccc(C[C@@H]2NC(=O)[C@H](CC(=O)O)NC(=O)[C@H](Cc3ccc(OCC(=O)O)cc3)NC(=O)[C@H](CCCNC(=N)N)NC(=O)CSC[C@@H](C(=O)NCCCCCCCCCCC(=O)O)NC(=O)[C@H](CCCN)NC(=O)[C@H](C(C)C)NC(=O)[C@H](CC3CCCCC3)NC(=O)[C@H](CCN)NC(=O)[C@@H](CC(C)C)NC(=O)[C@H](CCCN)NC(=O)[C@H](C(C)C)NC(=O)[C@H](Cc3ccc(-c4ccccc4)cc3)NC(=O)[C@H](C(C)C)NC2=O)c1` [Compound 3316] ({CH2CO}-RY(Carboxymethyl)D[Phe(3-Me)]V[Bip]V[Orn][dL][Dab][Cha]V[Orn]C[Aun]-OH; thioether N-14), for which the IC50 worked out at 6.2 nM.

In the case of `Cc1cccc(C[C@@H]2NC(=O)[C@H](CC(=O)O)NC(=O)[C@H](Cc3ccc(OCC(=O)O)cc3)NC(=O)[C@H](CCCCN)NC(=O)CSC[C@@H](C(=O)N[C@@H](CCN)C(=O)NCCCCCCCCCCC(=O)O)NC(=O)[C@H]([C@@H](C)O)NC(=O)[C@H](C(C)C)NC(=O)[C@H](CC3CCCCC3)NC(=O)[C@H](CCN)NC(=O)[C@@H](CC(C)C)NC(=O)[C@H](CCCN)NC(=O)[C@H](CCCNC(N)=O)NC(=O)[C@H](Cc3ccc(-c4ccccc4)cc3)NC(=O)[C@H](C(C)C)NC2=O)c1` [Compound 2823] ({CH2CO}-KY(Carboxymethyl)D[Phe(3-Me)]V[Bip][Cit][Orn][dL][Dab][Cha]VTC[Dab][Aun]-OH; thioether N-14), the IC50 came out at 16.4 nM.

`CC(C)C[C@H]1NC(=O)[C@H](CCCN)NC(=O)[C@H](C(C)C)NC(=O)[C@H](Cc2ccc(-c3ccccc3)cc2)NC(=O)[C@H](C(C)C)NC(=O)[C@H](Cc2c[nH]c3ccccc23)NC(=O)[C@H](CC(=O)O)NC(=O)[C@H](Cc2ccc(OCC(=O)O)cc2)NC(=O)[C@H](CN)NC(=O)CSC[C@@H](C(=O)N[C@@H](CCCCN)C(=O)NCCCCCCCCCCC(=O)O)NC(=O)[C@H](CN)NC(=O)[C@H](C(C)C)NC(=O)[C@H](CC2CCCCC2)NC(=O)[C@H](Cc2cc[nH]c2)NC1=O` [Compound 2801] ({CH2CO}-[Dap]Y(Carboxymethyl)DWV[Bip]V[Orn][dL][X10][Cha]V[Dap]CK[Aun]-OH; thioether N-14): the IC50 worked out at 327 nM.
